In patent US10653688B2, “6-(6-membered heteroaryl and aryl)isoquinolin-3-yl carboxamides and preparation and use thereof” (Samumed, LLC, priority 2017, dated 2020):
Where two headings read alike, the source gives them in different places.

Columns and labels:
[1] = system: SW480 colon carcinoma cells; assay: Cell viability assay (CellTiter-Glo); assay type: cell-based, human; details: Homo sapiens, 96 h, four days, CellTiter-Glo
[2] = system: Wnt activity (SW480 colon carcinoma cells stably expressing the Sp5-Luc reporter gene); assay: Wnt activity screening assay (Sp5-Luc reporter gene assay); assay type: cell-based, human; details: Homo sapiens, 36 to 48 hours
Procedure, shortened: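 EC50 values come from a variable-slope four-parameter fit of luminescence normalized to DMSO-only wells. The read-out follows 36–48 h incubation at 37 °C, 5% CO2, in DMEM containing 1% fetal bovine serum. Cells are hygromycin-selected SW480 stably expressing firefly luciferase under a Wnt-responsive Sp5 promoter (eight TCF/LEF sites).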

recombinant GSK3β kinase = recombinant GSK3β kinase (Homo sapiens (Human), UniProt P49841); assay: GSK3β kinase assay (Ser/Thr 09 peptide Z-lyte, FRET); assay type: biochemical;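 also: FRET read-out as coumarin over fluorescein emission ratio, compounds incubated one hour at room temperature, IC50 from dose-response curve fit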
[3] = system: LL29 cells (primary human fibroblasts derived from IPF patients), α-smooth muscle actin; assay: Inhibition of fibrotic process: TGF-β1-treated primary human fibroblasts, αSMA staining; assay type: cell-based; details: Homo sapiens, Fibroblast; for EC50: 96 h, TGF-β1 20 ng/mL, 4 days, % cells positive for αSMA; for inhibition at 10 µM: read-out: percent inhibition at 10 μM (given for EC50 >10 μM), TGF-β1, αSMA, 10 μM;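 as to all read-outs here: controls were TGF-β1-stimulated wells with DMSO vehicle as the positive reference and cells given DMSO alone as the negative reference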
Protocol: Representative compounds were screened using primary human fibroblasts (derived from IPF patients) treated with TGF-β1 to determine their ability to inhibit the fibrotic process.
Human Fibroblast Cell Culture:
Each compound was dissolved in DMSO as a 10 mM stock and used to prepare compound source plates. […] LL29 cells were plated at 1,500 cells/well in 70 μL/well F12 medium supplemented with 1% Fetal Bovine Serum. […] Wells treated with TGF-β1 and containing DMSO were used as positive control, and cells with only DMSO were negative control. Cells were incubated at 37° C. and 5% CO2 for 4 days. Following incubation for 4 days, SYTOX green nucleic acid stain (Life Technologies [Thermo Fisher Scientific]) was added to the wells at a final concentration of 1 μM and incubated at room temperature for 30 min. Cells were then fixed using 4% formaldehyde (Electron Microscopy Sciences), washed 3 times with PBS followed by blocking and permeabilization using 3% Bovine Serum Albumin (BSA; Sigma) and 0.3% Triton X-100 (Sigma) in PBS.

[4] = system: IL-6 in human peripheral blood mononuclear cells (huPBMCs); assay: IL-6 inhibition in LPS-stimulated human peripheral blood mononuclear cells (HTRF); assay type: cell-based; details: Homo sapiens, PBMC, LPS 50 ng/mL, 22 hours, IL-6 HTRF
Procedure, shortened: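 Compound-treated huPBMCs (1×10e6 cells/mL, 1% FBS-RPMI) were stimulated after 2 h with LPS (50 ng/mL) for another 22 h at 37° C. An anti-IL-6 HTRF pair reported IL-6 as the 665/620 nm ratio; activity relative to DMSO, EC50 by 4-parameter Levenberg-Marquardt fitting, duplicates.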

[5] = target: recombinant DYRK1A kinase (Homo sapiens (Human), UniProt Q13627); assay: DYRK1A kinase assay (Ser/Thr 18 peptide Z-lyte, FRET)
[6] = GSK3β kinase, head says EC50, method says IC50, ATP 46 μM
[7] = DYRK1A kinase, head says EC50, method says IC50, ATP 30 μM

Chain of recombinant GSK3β kinase (P49841 whole entry): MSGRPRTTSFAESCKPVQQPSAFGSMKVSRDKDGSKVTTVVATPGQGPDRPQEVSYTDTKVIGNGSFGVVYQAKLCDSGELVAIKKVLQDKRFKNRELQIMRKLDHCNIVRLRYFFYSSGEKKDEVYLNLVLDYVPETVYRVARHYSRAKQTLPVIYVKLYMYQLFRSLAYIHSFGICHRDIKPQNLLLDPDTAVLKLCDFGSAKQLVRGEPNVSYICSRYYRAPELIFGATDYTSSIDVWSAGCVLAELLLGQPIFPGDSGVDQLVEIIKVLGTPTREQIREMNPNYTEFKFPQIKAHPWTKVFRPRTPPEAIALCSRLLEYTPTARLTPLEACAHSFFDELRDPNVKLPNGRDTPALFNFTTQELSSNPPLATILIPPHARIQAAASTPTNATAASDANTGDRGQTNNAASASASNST

`CC(C)Nc1cncc(-c2ccc3cnc(NC(=O)c4ccnc(N5CCN(C)CC5)c4)cc3c2)n1` [Compound 97, N-(6-(6-(Isopropylamino)pyrazin-2-yl)isoquinolin-3-yl)-2-(4-methylpiperazin-1-yl)isonicotinamide] showed an EC50 [1] of 222 nM, an EC50 [2] of 7 nM and an EC50 (recombinant GSK3β kinase; [6]) of 6270 nM. The EC50 [3] was 311 nM, the EC50 [4] was 184 nM and the EC50 [5, 7] was 2 nM.

`CN(C)C1CN(c2cc(C(=O)Nc3cc4cc(-c5cncc(NC(C)(C)C)n5)ccc4cn3)ccn2)C1` [Compound 98, N-(6-(6-(tert-Butylamino)pyrazin-2-yl)isoquinolin-3-yl)-2-(3-(dimethylamino)azetidin-1-yl)isonicotinamide] was tested, and the EC50 [1] was 31 nM, the EC50 [2] was 24 nM and the EC50 (recombinant GSK3β kinase; [6]) was 4800 nM. For the same molecule, the EC50 [3] was 32 nM, the EC50 [4] was 87 nM and the EC50 [5, 7] was 2 nM.

With `CN1CC=C(c2cc(C(=O)Nc3cc4cc(-c5cncc(NC(C)(C)C)n5)ccc4cn3)ccn2)CC1` [Compound 99, N-(6-(6-(tert-Butylamino)pyrazin-2-yl)isoquinolin-3-yl)-1′-methyl-1′,2′,3′,6′-tetrahydro-[2,4′-bipyridine]-4-carboxamide] the EC50 [1] was 43 nM, the EC50 [2] was 18 nM and the EC50 (recombinant GSK3β kinase; [6]) was 748 nM. For the same molecule, the EC50 [3] was 31 nM, the EC50 [4] was 125 nM and the EC50 [5, 7] was 4 nM.

In the case of `CN1CCN(c2cc(C(=O)Nc3cc4cc(-c5cncc(NC(C)(C)C)n5)ccc4cn3)ccn2)CC1` [Compound 100, N-(6-(6-(tert-Butylamino)pyrazin-2-yl)isoquinolin-3-yl)-2-(4-methylpiperazin-1-yl)isonicotinamide], the EC50 [1] is reported as 111 nM, the EC50 [2] is reported as 51 nM and the EC50 (recombinant GSK3β kinase; [6]) is reported as 5170 nM. For the same molecule, the EC50 [3] was 45 nM, the EC50 [4] was 223 nM and the EC50 [5, 7] was 4 nM.

Molecule `CC(C)N1CCN(c2cc(C(=O)Nc3cc4cc(-c5cncc(NC(C)(C)C)n5)ccc4cn3)ccn2)CC1` [Compound 101, N-(6-(6-(tert-Butylamino)pyrazin-2-yl)isoquinolin-3-yl)-2-(4-isopropylpiperazin-1-yl)isonicotinamide] has an EC50 [1] of 61 nM, an EC50 [2] of 42 nM and an EC50 (recombinant GSK3β kinase; [6]) of over 10000 nM. It also gave an EC50 [3] of 46 nM, an EC50 [4] of 260 nM and an EC50 [5, 7] of 4 nM.

`CC(C)(C)Nc1cncc(-c2ccc3cnc(NC(=O)c4ccnc(N5CCOCC5)c4)cc3c2)n1` [Compound 102, N-(6-(6-(tert-Butylamino)pyrazin-2-yl)isoquinolin-3-yl)-2-morpholinoisonicotinamide] was tested, and the EC50 [1] was 226 nM, the EC50 [2] was 153 nM and the EC50 (recombinant GSK3β kinase; [6]) was over 10000 nM. The EC50 [3] was 94 nM, the EC50 [4] was 401 nM and the EC50 [5, 7] was 19 nM.

`O=C(Nc1cc2cc(-c3cncc(NCC4(F)CNC4)n3)ccc2cn1)C1CC1` [Compound 103, N-(6-(6-(((3-Fluoroazetidin-3-yl)methyl)amino)pyrazin-2-yl)isoquinolin-3-yl)cyclopropanecarboxamide] was tested, and the EC50 [1] was 253 nM, the EC50 [2] was 119 nM and the EC50 (recombinant GSK3β kinase; [6]) was 3 nM. For the same molecule, the EC50 [3] was 547 nM, the EC50 [4] was 146 nM and the EC50 [5, 7] was 1 nM.

`O=C(Nc1cc2cc(-c3cncc(NCC4(F)CNC4)n3)ccc2cn1)c1ccc(F)cc1` [Compound 104, 4-fluoro-N-(6-(6-(((3-Fluoroazetidin-3-yl)methyl)amino)pyrazin-2-yl)isoquinolin-3-yl)benzamide] showed an EC50 [1] of 119 nM, an EC50 [2] of 63 nM and an EC50 (recombinant GSK3β kinase; [6]) of 4390 nM. For the same molecule, the EC50 [3] was 284 nM, the EC50 [4] was 1170 nM and the EC50 [5, 7] was 1 nM.

`O=C(Nc1cc2cc(-c3cncc(NC4CCNCC4)n3)ccc2cn1)C1CCC1` [Compound 105, N-(6-(6-(Piperidin-4-ylamino)pyrazin-2-yl)isoquinolin-3-yl) cyclobutanecarboxamide] was tested, and the EC50 [1] was 312 nM, the EC50 [2] was 261 nM and the EC50 (recombinant GSK3β kinase) was 56 nM. It also gave an EC50 [3] of 226 nM, an EC50 [4] of 207 nM and an EC50 [5] of 1 nM.

In the case of `O=C(Nc1cc2cc(-c3cncc(NC4CCNCC4)n3)ccc2cn1)C1CC(F)(F)C1` [Compound 106, 3,3-Difluoro-N-(6-(6-(piperidin-4-ylamino)pyrazin-2-yl)isoquinolin-3-yl) cyclobutane-1-carboxamide], the EC50 [1] is reported as 8420 nM, the EC50 [2] is reported as 381 nM and the EC50 (recombinant GSK3β kinase; [6]) is reported as 50 nM. For the same molecule, the EC50 [3] was 27 nM, the EC50 [4] was 369 nM and the EC50 [5, 7] was 1 nM.

Molecule `O=C(Nc1cc2cc(-c3cncc(NC4CCNCC4)n3)ccc2cn1)C1CCCC1` [Compound 107, N-(6-(6-(Piperidin-4-ylamino)pyrazin-2-yl)isoquinolin-3-yl) cyclopentanecarboxamide] has an EC50 [1] of 5910 nM, an EC50 [2] of 266 nM and an EC50 (recombinant GSK3β kinase; [6]) of 31 nM. The EC50 [3] was 1270 nM, the EC50 [4] was 119 nM and the EC50 [5, 7] was 1 nM.

Work on `O=C(Nc1cc2cc(-c3cncc(NC4CCNCC4)n3)ccc2cn1)C1CCC(F)(F)CC1` [Compound 108, 4,4-Difluoro-N-(6-(6-(piperidin-4-ylamino)pyrazin-2-yl)isoquinolin-3-yl) cyclohexane-1-carboxamide] yielded an EC50 [1] of 1560 nM, an EC50 [2] of 457 nM and an EC50 (recombinant GSK3β kinase; [6]) of 92 nM. It also gave an EC50 [3] of 3390 nM, an EC50 [4] of 385 nM and an EC50 [5, 7] of 2 nM.

`O=C(Nc1cc2cc(-c3cncc(NC4CCNCC4)n3)ccc2cn1)c1ccc(F)cc1` [Compound 110, 4-fluoro-N-(6-(6-(piperidin-4-ylamino)pyrazin-2-yl)isoquinolin-3-yl)benzamide] showed an EC50 [1] of 326 nM, an EC50 [2] of 116 nM and an EC50 (recombinant GSK3β kinase; [6]) of 4320 nM. The EC50 [3] was 345 nM, the EC50 [4] was 1180 nM and the EC50 [5, 7] was 2 nM.

`O=C(Nc1cc2cc(-c3cncc(N[C@H]4CCNC[C@@H]4F)n3)ccc2cn1)C1CC1` [Compound 111, N-(6-(6-(((3S,4S)-3-Fluoropiperidin-4-yl)amino)pyrazin-2-yl)isoquinolin-3-yl)cyclopropanecarboxamide] showed an EC50 [1] of 18 nM, an EC50 [2] of 9 nM and an EC50 (recombinant GSK3β kinase) of 4 nM. It also gave an EC50 [3] of 1520 nM, an EC50 [4] of 106 nM and an EC50 [5] of 1 nM.

Molecule `O=C(Nc1cc2cc(-c3cncc(N[C@H]4CCNC[C@@H]4F)n3)ccc2cn1)c1ccc(F)cc1` [Compound 112, 4-Fluoro-N-(6-(6-(((3S,4S)-3-fluoropiperidin-4-yl)amino)pyrazin-2-yl)isoquinolin-3-yl)benzamide] has an EC50 [1] of 7 nM, an EC50 [2] of 9 nM and an EC50 (recombinant GSK3β kinase; [6]) of 1830 nM. It also gave an EC50 [3] of 975 nM, an EC50 [4] of 1060 nM and an EC50 [5, 7] of 8 nM.

Work on `CN1CCC(Nc2cncc(-c3ccc4cnc(NC(=O)C5CCC5)cc4c3)n2)CC1` [Compound 113, N-(6-(6-((1-Methylpiperidin-4-yl)amino)pyrazin-2-yl)isoquinolin-3-yl) cyclobutanecarboxamide] yielded an EC50 [1] of 283 nM, an EC50 [2] of 247 nM and an EC50 (recombinant GSK3β kinase; [6]) of 67 nM. The EC50 [3] was over 10000 nM, the inhibition at 10 µM [3] was 27.3% and the EC50 [4] was 383 nM. It also gave an EC50 [5, 7] of 1 nM.

`CN1CCC(Nc2cncc(-c3ccc4cnc(NC(=O)C5CCCC5)cc4c3)n2)CC1` [Compound 114, N-(6-(6-((1-Methylpiperidin-4-yl)amino)pyrazin-2-yl)isoquinolin-3-yl) cyclopentanecarboxamide] gave an EC50 [1] of 474 nM, an EC50 [2] of 438 nM and an EC50 (recombinant GSK3β kinase; [6]) of 48 nM. The EC50 [3] was 175 nM, the EC50 [4] was 334 nM and the EC50 [5, 7] was 1 nM.

Molecule `CN1CCC(Nc2cncc(-c3ccc4cnc(NC(=O)c5ccc(F)cc5)cc4c3)n2)CC1` [Compound 115, 4-fluoro-N-(6-(6-((1-methylpiperidin-4-yl)amino)pyrazin-2-yl)isoquinolin-3-yl)benzamide] has an EC50 [1] of 5120 nM, an EC50 [2] of 39 nM and an EC50 (recombinant GSK3β kinase) of 8480 nM. The EC50 [3] was over 10000 nM, the inhibition at 10 µM [3] was 12.2% and the EC50 [4] was 3190 nM. The EC50 [5] was 1 nM.

In the case of `CC(C)N1CCC(Nc2cncc(-c3ccc4cnc(NC(=O)C5CC5)cc4c3)n2)CC1` [Compound 116, N-(6-(6-((1-Isopropylpiperidin-4-yl)amino)pyrazin-2-yl)isoquinolin-3-yl) cyclopropanecarboxamide], the EC50 [1] is reported as 485 nM, the EC50 [2] is reported as 198 nM and the EC50 (recombinant GSK3β kinase; [6]) is reported as 58 nM. The EC50 [3] was 105 nM, the EC50 [4] was 358 nM and the EC50 [5, 7] was 1 nM.

`CC(C)N1CCC(Nc2cncc(-c3ccc4cnc(NC(=O)C5CC(F)(F)C5)cc4c3)n2)CC1` [Compound 117, 3,3-Difluoro-N-(6-(6-((1-isopropylpiperidin-4-yl)amino)pyrazin-2-yl)isoquinolin-3-yl)cyclobutane-1-carboxamide] showed an EC50 [1] of 1960 nM, an EC50 [2] of 1470 nM and an EC50 (recombinant GSK3β kinase; [6]) of 128 nM. The EC50 [3] was 170 nM, the EC50 [4] was 1360 nM and the EC50 [5, 7] was 2 nM.

`CC(C)N1CCC(Nc2cncc(-c3ccc4cnc(NC(=O)C5CCCC5)cc4c3)n2)CC1` [Compound 118, N-(6-(6-((1-Isopropylpiperidin-4-yl)amino)pyrazin-2-yl)isoquinolin-3-yl) cyclopentanecarboxamide] was tested, and the EC50 [1] was 1190 nM, the EC50 [2] was 833 nM and the EC50 (recombinant GSK3β kinase; [6]) was 78 nM. The EC50 [3] was 148 nM, the EC50 [4] was 932 nM and the EC50 [5, 7] was 1 nM.
